This is an account of results in US20250145642A1, “BICYCLIC HETEROARENES AND METHODS OF THEIR USE” (Kineta, Inc., priority 2021, published 2025).

Counter-ions that a name gives are not always drawn.

Chain of full-length human PIKFYVE (N-terminal GST-fusion) (Q9Y2I7 whole entry S696N/L932S/Q995L/T998S/S1033A/Q1183K, the tested form may be a part): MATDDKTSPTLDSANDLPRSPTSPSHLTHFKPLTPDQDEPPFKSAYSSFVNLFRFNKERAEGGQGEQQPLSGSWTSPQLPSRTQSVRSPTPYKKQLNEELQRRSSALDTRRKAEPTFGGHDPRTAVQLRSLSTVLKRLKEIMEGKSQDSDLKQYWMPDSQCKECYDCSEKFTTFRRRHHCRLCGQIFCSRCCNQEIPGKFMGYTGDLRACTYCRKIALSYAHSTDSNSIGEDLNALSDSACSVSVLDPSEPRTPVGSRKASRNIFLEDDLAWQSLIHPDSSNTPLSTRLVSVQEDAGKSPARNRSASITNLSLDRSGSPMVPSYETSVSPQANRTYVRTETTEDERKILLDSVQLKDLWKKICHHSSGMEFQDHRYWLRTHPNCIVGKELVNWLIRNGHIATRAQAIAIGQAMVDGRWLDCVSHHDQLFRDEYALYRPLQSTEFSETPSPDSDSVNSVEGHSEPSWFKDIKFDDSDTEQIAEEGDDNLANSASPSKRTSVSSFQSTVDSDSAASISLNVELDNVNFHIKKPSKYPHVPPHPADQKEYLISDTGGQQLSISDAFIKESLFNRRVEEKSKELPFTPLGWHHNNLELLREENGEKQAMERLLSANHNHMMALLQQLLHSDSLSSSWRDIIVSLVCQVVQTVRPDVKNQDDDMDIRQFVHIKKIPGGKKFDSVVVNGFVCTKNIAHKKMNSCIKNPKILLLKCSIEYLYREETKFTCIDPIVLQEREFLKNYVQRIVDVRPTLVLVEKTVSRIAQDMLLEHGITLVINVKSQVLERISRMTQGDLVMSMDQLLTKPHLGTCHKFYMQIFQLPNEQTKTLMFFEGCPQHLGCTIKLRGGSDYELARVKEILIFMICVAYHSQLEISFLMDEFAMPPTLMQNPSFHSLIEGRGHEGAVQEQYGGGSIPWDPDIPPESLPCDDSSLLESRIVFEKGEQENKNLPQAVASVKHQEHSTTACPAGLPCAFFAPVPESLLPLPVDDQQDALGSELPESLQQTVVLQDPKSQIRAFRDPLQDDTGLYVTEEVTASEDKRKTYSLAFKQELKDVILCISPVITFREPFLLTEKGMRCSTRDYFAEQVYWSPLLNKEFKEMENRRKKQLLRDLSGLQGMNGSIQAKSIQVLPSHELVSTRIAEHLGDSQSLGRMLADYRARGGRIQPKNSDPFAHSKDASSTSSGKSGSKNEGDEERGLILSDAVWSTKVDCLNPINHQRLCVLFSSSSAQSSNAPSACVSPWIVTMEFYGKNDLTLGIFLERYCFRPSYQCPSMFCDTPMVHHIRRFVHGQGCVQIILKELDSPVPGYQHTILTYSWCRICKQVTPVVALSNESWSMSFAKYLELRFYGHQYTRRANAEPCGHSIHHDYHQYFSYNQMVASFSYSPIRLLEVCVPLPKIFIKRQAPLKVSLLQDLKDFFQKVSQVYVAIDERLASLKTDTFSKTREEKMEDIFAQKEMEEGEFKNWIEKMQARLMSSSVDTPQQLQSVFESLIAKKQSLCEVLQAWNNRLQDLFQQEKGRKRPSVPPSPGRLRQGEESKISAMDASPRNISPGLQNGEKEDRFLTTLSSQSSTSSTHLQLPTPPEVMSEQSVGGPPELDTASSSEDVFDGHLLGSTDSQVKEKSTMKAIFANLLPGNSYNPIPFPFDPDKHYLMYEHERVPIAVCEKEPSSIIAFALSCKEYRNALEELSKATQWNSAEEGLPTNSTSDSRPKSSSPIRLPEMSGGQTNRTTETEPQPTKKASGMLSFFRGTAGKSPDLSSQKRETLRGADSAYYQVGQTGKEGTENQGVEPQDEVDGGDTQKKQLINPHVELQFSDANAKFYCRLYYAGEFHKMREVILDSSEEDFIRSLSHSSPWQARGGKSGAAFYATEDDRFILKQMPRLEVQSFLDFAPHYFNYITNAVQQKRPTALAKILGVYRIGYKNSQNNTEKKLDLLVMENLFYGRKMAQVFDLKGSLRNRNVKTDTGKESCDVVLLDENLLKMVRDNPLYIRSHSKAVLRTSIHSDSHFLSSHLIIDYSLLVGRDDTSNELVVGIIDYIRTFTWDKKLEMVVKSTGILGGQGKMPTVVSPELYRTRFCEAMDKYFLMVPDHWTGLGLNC

The first assay addresses full-length human PIKFYVE (N-terminal GST-fusion) (Homo sapiens (Human), UniProt Q9Y2I7, L932S/Q1183K/Q995L/S1033A/S696N/T998S). Put plainly: PIKfyve biochemical assay (ADP-Glo Kinase assay, Carna Biosciences). The conditions noted are these: ADP-Glo, full-length human GST-PIKFYVE, 10 μM to 3 nM; read-out: hPIKfyve IC50.
Source text: (§1) PIKfyve Biochemical Assay. The biochemical PIKfyve inhibition assays were run by Carna Biosciences according to proprietary methodology based on the Promega ADP-Glo™ Kinase assay. A full-length human PIKFYVE [1-2098(end) amino acids and S696N, L932S, Q995L, T998S, S1033A and Q1183K of the protein having the sequence set forth in NCBI Reference Sequence No. NP_055855.2] was expressed as N-terminal GST-fusion protein (265 kDa) using baculovirus expression system. GST-PIKFYVE was purified by using glutathione sepharose chromatography and used in an ADP-Glo™ Kinase assay (Promega). Reactions were set up by adding the test compound solution, substrate solution, ATP solution and kinase solution, each at 4× final concentrations. Reactions were prepared with assay buffer (50 mM MOPS, 1 mM DTT, pH7.2), mixed, and incubated in black 384 well polystyrene plates for 1 hour at room temperature. ADP-Glo™ reagent was then added for 40 minutes, followed by kinase detection reagent for an additional 40 minutes. The kinase activity was evaluated by detecting relative light units on a luminescence plate reader. Samples were run in duplicate from 10 μM to 3 nM. […] IC50 values were calculated from concentration vs % inhibition curves by fitting to a four-parameter logistic curve.
as §1, with “The” for “PIKfyve Biochemical Assay. The”, “accession number” for “the protein having the sequence set forth in NCBI Reference Sequence No.”, “curve. […]” for “curve.”
Take `O=C(C1CC1)N1CCC(c2nc(N3CCOCC3)nc3c2CCN3c2ccccc2)C1` (stereo not shown) [Compound 118, cyclopropyl(3-(2-morpholino-7-phenyl-6,7-dihydro-5H-pyrrolo[2,3-d]pyrimidin-4-yl)pyrrolidin-1-yl)methanone]: the half-maximal inhibitory concentration (IC50) was less than 10 nM.

With `c1cc(N2CCc3c(-c4ccoc4)nc(N4CCOCC4)nc32)cnn1` [Compound 96, 4-(4-(furan-3-yl)-7-(pyridazin-4-yl)-6,7-dihydro-5H-pyrrolo[2,3-d]pyrimidin-2-yl)morpholine], the IC50 fell in the range of 10 to 100 nM.

On to `Cn1nccc1-c1c[nH]c2c(-c3ccncc3)nc(N3CCOCC3)nc12` [Compound 141, 4-(7-(1-methyl-1H-pyrazol-5-yl)-4-(pyridin-4-yl)-5H-pyrrolo[3,2-d]pyrimidin-2-yl)morpholine], for which the IC50 fell in the range of 10 to 100 nM.

Turning to `c1cncc(N2CCc3c(OCC4CCOCC4)nc(N4CCOCC4)nc32)c1` [Compound 151, 4-{4-[(oxan-4-yl)methoxy]-7-(pyridin-3-yl)-5H,6H,7H-pyrrolo[2,3-d]pyrimidin-2-yl}morpholine], the IC50 fell in the range of 100 to 1000 nM.

Take `Cc1cccc(CN2CCc3c(Cl)nc(N4CCOCC4)nc32)c1` [Compound 41, 4-(4-chloro-7-(3-methylbenzyl)-6,7-dihydro-5H-pyrrolo[2,3-d]pyrimidin-2-yl)morpholine]: the IC50 is more than 10000 nM.

Consider `c1ccc(N2CCc3cnc(N4CCOCC4)nc32)cc1` [Compound 2, 4-(7-phenyl-6,7-dihydro-5H-pyrrolo[2,3-d]pyrimidin-2-yl)morpholine], for which the IC50 fell in the range of 100 to 1000 nM.

Regarding `c1ccc(N2CCc3c(OCc4cccnc4)nc(N4CCOCC4)nc32)cc1` [Compound 25, 4-(7-phenyl-4-(pyridin-3-ylmethoxy)-6,7-dihydro-5H-pyrrolo[2,3-d]pyrimidin-2-yl)morpholine], the 50% inhibitory concentration (IC50) was 10 to 100 nM.

In the case of `O=C(Cc1ccccc1)N1CCc2c(-c3ccncc3)nc(N3CCOCC3)nc21` [Compound 73, 1-(2-morpholino-4-(pyridin-4-yl)-5,6-dihydro-7H-pyrrolo[2,3-d]pyrimidin-7-yl)-2-phenylethan-1-one], the half-inhibitory concentration (IC50) lay in the range of 10 to 100 nM.

Take `c1ccc(-n2cc(N3CCc4c(Oc5cccnc5)nc(N5CCOCC5)nc43)nn2)cc1` [Compound 69, 4-(7-(1-phenyl-1H-1,2,3-triazol-4-yl)-4-(pyridin-3-yloxy)-6,7-dihydro-5H-pyrrolo[2,3-d]pyrimidin-2-yl)morpholine]: the IC50 lay in the range of 10 to 100 nM.

On to `c1ccc(N2CCc3c(OCC4COC4)nc(N4CCOCC4)nc32)cc1` [Compound 20, 4-(4-(oxetan-3-ylmethoxy)-7-phenyl-6,7-dihydro-5H-pyrrolo[2,3-d]pyrimidin-2-yl)morpholine], for which the IC50 lay within 10 to 100 nM.

Consider `Oc1ccc[n+](Cc2nc(N3CCOCC3)nc3c2CCN3c2ccccc2)c1` [Compound 60, 5-hydroxy-1-((2-morpholino-7-phenyl-6,7-dihydro-5H-pyrrolo[2,3-d]pyrimidin-4-yl)methyl)pyridin-1-ium-3-ylium], for which the IC50 fell in the range of 100 to 1000 nM.

`CC(C)(C)OC(=O)N1CCC(COc2nc(N3CCOCC3)nc3c2CCN3c2cccnc2)C1` (stereo not shown) [Compound 33, tert-butyl 3-(((2-morpholino-7-(pyridin-3-yl)-6,7-dihydro-4H-pyrrolo[2,3-d]pyrimidin-4-yl)oxy)methyl)pyrrolidine-1-carboxylate]: the IC50 fell in the range of 100 to 1000 nM.

For `c1cncc(N2CCc3c(COC4CCNC4)nc(N4CCOCC4)nc32)c1` (stereo not shown) [Compound 64, 4-(7-(pyridin-3-yl)-4-((pyrrolidin-3-yloxy)methyl)-6,7-dihydro-5H-pyrrolo[2,3-d]pyrimidin-2-yl)morpholine], the IC50 lay in the range of 1000 to 10000 nM.

As to `Fc1cccc(N2CCc3c(OCc4cccnn4)nc(N4CCOCC4)nc32)c1` [Compound 8, 4-(7-(3-fluorophenyl)-4-(pyridazin-3-ylmethoxy)-6,7-dihydro-5H-pyrrolo[2,3-d]pyrimidin-2-yl)morpholine], the IC50 was in the range of 100 to 1000 nM.

As for `c1ccc(N2CCc3c(-c4ccccn4)nc(N4CCOCC4)nc32)cc1` [Compound 90, 4-(7-phenyl-4-(pyridin-2-yl)-6,7-dihydro-5H-pyrrolo[2,3-d]pyrimidin-2-yl)morpholine], the IC50 lay in the range of 100 to 1000 nM.

In the case of `N#Cc1cccc(N2CCc3c(OCc4cccnc4)nc(N4CCOCC4)nc32)c1` [Compound 4, 3-(2-morpholino-4-(pyridin-3-ylmethoxy)-5H-pyrrolo[2,3-d]pyrimidin-7(6H)-yl)benzonitrile], the IC50 lay within 100 to 1000 nM.

On to `c1ccc(N2CCc3c(C4CCOCC4)nc(N4CCOCC4)nc32)cc1` [Compound 86, 4-(7-phenyl-4-(tetrahydro-2H-pyran-4-yl)-6,7-dihydro-5H-pyrrolo[2,3-d]pyrimidin-2-yl)morpholine], for which the concentration for half-maximal inhibition (IC50) was 100 to 1000 nM.

For `O=c1ccccn1-c1nc(N2CCOCC2)nc2c1CCN2c1cccnc1` [Compound 52, 1-(2-morpholino-7-(pyridin-3-yl)-6,7-dihydro-5H-pyrrolo[2,3-d]pyrimidin-4-yl)pyridin-2(1H)-one], the concentration for half-maximal inhibition (IC50) lay in the range of 1000 to 10000 nM.

For `c1ccc(-n2ncc3c(N4CCOCC4)nc(OCc4cccnc4)nc32)cc1` [Compound 131, 4-(1-phenyl-6-(pyridin-3-ylmethoxy)-1H-pyrazolo[3,4-d]pyrimidin-4-yl)morpholine], the IC50 was 1000 to 10000 nM.

As for `c1cncc(N2CCc3c(N4CCN5CCOCC5C4)nc(N4CCOCC4)nc32)c1` (stereo not shown) [Compound 79, 8-(2-morpholino-7-(pyridin-3-yl)-6,7-dihydro-5H-pyrrolo[2,3-d]pyrimidin-4-yl)octahydropyrazino[2,1-c][1,4]oxazine], the 50% inhibitory concentration (IC50) was 1000 to 10000 nM.

On to `Fc1cccc(N2CCc3c(C4CCOC4)nc(N4CCOCC4)nc32)c1` (stereo not shown) [Compound 94, 4-(7-(3-fluorophenyl)-4-(tetrahydro-furan-3-yl)-6,7-dihydro-5H-pyrrolo[2,3-d]pyrimidin-2-yl)morpholine], for which the IC50 was in the range of 100 to 1000 nM.

Regarding `CC(=O)N1CCC(c2nc(N3CCOCC3)nc3c2CCN3c2ccccc2)C1` (stereo not shown) [Compound 119, 1-(3-(2-morpholino-7-phenyl-6,7-dihydro-5H-pyrrolo[2,3-d]pyrimidin-4-yl)pyrrolidin-1-yl)ethanone], the concentration for half-maximal inhibition (IC50) lay in the range of 10 to 100 nM.

As for `Fc1cccc(N2CCc3c(Oc4cccnc4)nc(N4CCOCC4)nc32)c1` [Compound 56, 4-(7-(3-fluorophenyl)-4-(pyridin-3-yloxy)-6,7-dihydro-5H-pyrrolo[2,3-d]pyrimidin-2-yl)morpholine], the IC50 fell in the range of 10 to 100 nM.

As to `OCC(O)COc1nc(N2CCOCC2)nc2c1CCN2c1ccccc1` (stereo not shown) [Compound 43, 3-((2-morpholino-7-phenyl-6,7-dihydro-6H-pyrrolo[2,3-d]pyrimidin-4-yl)oxy)propane-1,2-diol], the IC50 lay within 100 to 1000 nM.

On to `c1cncc(COc2nc(N3CCOCC3)nc3c2CCN3c2cccnc2)c1` [Compound 32, 4-(7-(pyridin-3-yl)-4-(pyridin-3-ylmethoxy)-6,7-dihydro-5H-pyrrolo[2,3-d]pyrimidin-2-yl)morpholine], for which the 50% inhibitory concentration (IC50) was 100 to 1000 nM.

`c1ccc(-c2nccc(-c3nc(N4CCOCC4)nc4c3CCN4c3cccnc3)n2)cc1` [Compound 124, 4-(4-(2-phenylpyrimidin-4-yl)-7-(pyridin-3-yl)-6,7-dihydro-5H-pyrrolo[2,3-d]pyrimidin-2-yl)morpholine hydrochloride]: the IC50 is 10 to 100 nM.

Take `Cc1cccc(N2C(=O)Cc3c(OCc4cccnc4)nc(N4CCOCC4)nc32)c1` [Compound 129, 2-morpholino-4-(pyridin-3-ylmethoxy)-7-m-tolyl-5H-pyrrolo[2,3-d]pyrimidin-6(7H)-one]: the 50% inhibitory concentration (IC50) fell in the range of 100 to 1000 nM.

Regarding `c1cncc(-c2nc(N3CCOCC3)nc3c2CCN3c2ccc3c(c2)OCCO3)c1` [Compound 103, 4-(7-(2,3-dihydrobenzo[b][1,4]dioxin-6-yl)-4-(pyridin-3-yl)-6,7-dihydro-5H-pyrrolo[2,3-d]pyrimidin-2-yl)morpholine], the IC50 is less than 10 nM.

As for `OCCn1cc(-c2cccc(-n3cccn3)c2)c2nc(N3CCOCC3)nc(-c3ccncc3)c21` [Compound 149, 2-(7-(3-(1H-pyrazol-1-yl)phenyl)-2-morpholino-4-(pyridin-4-yl)-6H-pyrrolo[3,2-d]pyrimidin-5-yl)ethan-1-ol], the half-inhibitory concentration (IC50) lay within 100 to 1000 nM.

The same assay, now with this note: values plotted in FIG. 7; read-out: PIKFYVE Biochemistry (IC50).
Turning to `O=c1ccn(Cc2nc(N3CCOCC3)cc(-n3nccc3-c3ccccc3)n2)cc1`, the 50% inhibitory concentration (IC50) is more than 10000 nM.

Regarding `c1ccc(-c2nc(-c3cc(N4CCOCC4)nc(OCc4ccncc4)n3)no2)cc1`, the half-inhibitory concentration (IC50) was more than 10000 nM.
